According to patent publication US11535606B2, “Substituted quinoline-8-carbonitrile derivatives with androgen receptor degradation activity and uses thereof” (ACCUTAR BIOTECHNOLOGY INC., priority 2019, dated 2022):
Residue numbers refer to the chain shown, from its start.

What was measured:
[1] = target: T1, androgen receptor (AR) (Homo sapiens, UniProt P10275, T878A); experiment: AR degradation activity in LNCAP cells (Western blot); assay type: cell-based; conditions: 24 hours after administration, DC50 = concentration needed for 50% target protein degradation
T1 construct: endogenous in cells; host or cells: LNCAP
T1 sequence (P10275 1-920 T878A): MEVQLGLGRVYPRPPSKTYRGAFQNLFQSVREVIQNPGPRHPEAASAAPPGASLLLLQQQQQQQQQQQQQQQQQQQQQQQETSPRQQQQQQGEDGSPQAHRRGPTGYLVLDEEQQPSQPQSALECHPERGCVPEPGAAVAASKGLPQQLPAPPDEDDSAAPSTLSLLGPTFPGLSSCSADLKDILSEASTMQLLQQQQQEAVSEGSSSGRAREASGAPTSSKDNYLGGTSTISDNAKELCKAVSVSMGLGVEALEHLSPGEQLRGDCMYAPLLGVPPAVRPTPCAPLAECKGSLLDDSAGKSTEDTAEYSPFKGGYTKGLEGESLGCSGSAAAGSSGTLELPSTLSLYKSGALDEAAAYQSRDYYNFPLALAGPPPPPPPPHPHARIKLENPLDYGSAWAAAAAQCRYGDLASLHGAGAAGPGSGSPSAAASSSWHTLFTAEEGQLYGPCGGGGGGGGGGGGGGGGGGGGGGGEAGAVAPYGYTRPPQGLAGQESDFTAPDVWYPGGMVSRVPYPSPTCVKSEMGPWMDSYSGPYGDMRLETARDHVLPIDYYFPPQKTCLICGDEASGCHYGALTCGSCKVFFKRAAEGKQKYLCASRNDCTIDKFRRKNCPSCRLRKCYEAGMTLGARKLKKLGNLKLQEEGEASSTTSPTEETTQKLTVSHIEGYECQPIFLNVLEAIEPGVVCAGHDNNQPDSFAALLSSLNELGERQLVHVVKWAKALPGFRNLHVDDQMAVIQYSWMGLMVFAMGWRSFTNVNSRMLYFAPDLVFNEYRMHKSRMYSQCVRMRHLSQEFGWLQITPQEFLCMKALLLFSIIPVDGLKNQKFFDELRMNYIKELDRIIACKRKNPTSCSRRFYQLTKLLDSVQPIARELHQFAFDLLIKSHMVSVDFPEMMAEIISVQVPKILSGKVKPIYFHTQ
Procedure: (§1) LNCAP, VCAP and 22Rv1 cells were plated in 24-well plates at 1.5×10E5 cells/well in the RPMI growth medium containing 10% FBS and 1% Penicillin Streptomycin, and then incubated at 37° C. overnight. The following day, the test compound was administered to the cells by using 1000× compound stock solution prepared in DMSO at various concentrations. After administration of the compound, the cells were then incubated at 37° C. for 24 hours. Upon completion, the cells were washed with PBS and protein was collected in Laemmli sample buffer (1×; VWR International). Proteins in cell lysate were separated by SDS-PAGE and transferred to Odyssey nitrocellulose membranes (Licor) with Iblot® dry blotting transfer system (ThermoFisher). Nonspecific binding was blocked by incubating membranes with Intercept Blocking Buffer (Licor) for 1 hour at room temperature with gentle shaking. The membranes were then incubated overnight at 4° C. with Primary antibodies rabbit anti-AR (1:1,000, Cell Signaling, 5153) and mouse anti-GAPDH (1:5,000, Santa Cruz Biotechnology, sc-47724) diluted in Intercept Blocking Buffer containing 0.1% Tween 20. After washing 3 times with TBS-T, the membranes were incubated with IRDye® 800CW goat anti-mouse IgG (1:20,000, Licor) or IRDye® 800CW goat anti-rabbit IgG (1:20,000, Licor) for 1 hour. After TBS-T washes, membranes were rinsed in TBS and scanned on Odyssey® CLx Imaging System (Licor). The bands were quantified using Image Studio™ Software (Licor).
(§2) Table 4 summarizes the androgen receptor (AR) degradative activity of exemplary compounds in LNCAP, VCAP and 22Rv1 cell lines 24 hours after administration. DC50: compound concentration needed for 50% target protein degradation.

[2] = target: T2, androgen receptor (AR) (Homo sapiens, UniProt P10275); experiment: AR degradation activity in VCAP cells (Western blot); assay type: cell-based; conditions: 24 hours after administration, DC50 = concentration needed for 50% target protein degradation
T2 construct: endogenous in cells; host or cells: VCAP
T2 sequence (P10275 1-920): T1 sequence (P10275 1-920 T878A) with A878T
Procedure: as §1, §2

DC50 [1] | DC50 [2] | Structure (SMILES)
> 0.1 µM |  | N#Cc1ccc(OC2CCC(NC(=O)c3ccc(N4CCC(CN5CCN(c6cc7c(cc6F)C(=O)N(C6CCC(=O)NC6=O)C7=O)CC5)CC4)cc3)CC2)c2cccnc12 (centres unmarked) [Compound 3-49]
< 0.01 µM | < 0.01 µM | N#Cc1ccc(O[C@H]2CC[C@H](NC(=O)c3ccc(N4CCC(CN5CCN(c6ccc7c(c6)C(=O)N(C6CCC(=O)NC6=O)C7=O)CC5)CC4)cc3)CC2)c2cccnc12 (some centres unmarked) [Compound 3-18, N-(4-((8-cyanoquinolin-5-yl)oxy)cyclohexyl)-4-(4-((4-(2-(2,6-dioxopiperidin-3-yl)-1,3-dioxoisoindolin-5-yl)piperazin-1-yl)methyl)piperidin-1-yl)benzamide]
< 0.01 µM |  | N#Cc1ccc(OC2CCC(NC(=O)c3cnc(N4CCC(CN5CCN(c6ccc7c(c6)C(=O)N(C6CCC(=O)NC6=O)C7=O)CC5)CC4)cn3)CC2)c2cccnc12 (centres unmarked) [Compound 3-17]
< 0.01 µM | < 0.01 µM | N#Cc1ccc(O[C@H]2CC[C@H](NC(=O)c3ccc(N4CCC(CCN5CCN(c6ccc7c(c6)C(=O)N(C6CCC(=O)NC6=O)C7=O)CC5)CC4)cc3)CC2)c2cccnc12 (relative stereo) [Compound 3-22, trans-N-(4-((8-cyanoquinolin-5-yl)oxy)cyclohexyl)-4-(4-(2-(4-(2-(2,6-dioxopiperidin-3-yl)-1,3-dioxoisoindolin-5-yl)piperazin-1-yl)ethyl)piperidin-1-yl)benzamide]
< 0.01 µM | < 0.01 µM | N#Cc1ccc(O[C@H]2CC[C@H](NC(=O)c3cnc(N4CCC(CN5CCN(c6ccc7c(c6)C(=O)N(C6CCC(=O)NC6=O)C7=O)CC5)CC4)nc3)CC2)c2cccnc12 (stereo partly drawn) [Compound 3-15, trans-N-(4-((8-cyanoquinolin-5-yl)oxy)cyclohexyl)-2-(4-((4-(2-(2,6-dioxopiperidin-3-yl)-1,3-dioxoisoindolin-5-yl)piperazin-1-yl)methyl)piperidin-1-yl)pyrimidine-5-carboxamide]
< 0.01 µM |  | N#Cc1ccc(O[C@H]2CC[C@H](NC(=O)c3cnc(N4CC[C@@H](CN5CCN(c6ccc7c(c6)C(=O)N(C6CCC(=O)NC6=O)C7=O)CC5)C4)nc3)CC2)c2cccnc12 (some centres unmarked) [Compound 3-54]
< 0.01 µM | < 0.01 µM | N#Cc1ccc(OC2CCC(NC(=O)c3ccc(N4CCC(CN5CCN(c6ccc7c(c6)C(=O)N(C6CCC(=O)NC6=O)C7=O)CC5)CC4)c(F)c3)CC2)c2cccnc12 (centres unmarked) [Compound 3-19, N-(4-((8-cyanoquinolin-5-yl)oxy)cyclohexyl)-4-(4-((4-(2-(2,6-dioxopiperidin-3-yl)-1,3-dioxoisoindolin-5-yl)piperazin-1-yl)methyl)piperidin-1-yl)-3-fluorobenzamide]
< 0.01 µM | < 0.01 µM | N#Cc1ccc(O[C@H]2CC[C@H](NC(=O)c3ccc(N4CCC(CN5CCN(c6ccc7c(c6)C(=O)N(C6CCC(=O)NC6=O)C7=O)CC5)CC4)nc3)CC2)c2cccnc12 (relative stereo) [Compound 3-13, trans-N-(4-((8-cyanoquinolin-5-yl)oxy)cyclohexyl)-6-(4-((4-(2-(2,6-dioxopiperidin-3-yl)-1,3-dioxoisoindolin-5-yl)piperazin-1-yl)methyl)piperidin-1-yl)nicotinamide]
< 0.01 µM | < 0.01 µM | N#Cc1ccc(O[C@H]2CC[C@H](NC(=O)c3ccc(N4CCC(CN5CCN(c6ccc7c(c6)C(=O)N(C6CCC(=O)NC6=O)C7=O)CC5)CC4)nn3)CC2)c2cccnc12 (stereo partly drawn) [Compound 3-16, trans-N-(4-((8-cyanoquinolin-5-yl)oxy)cyclohexyl)-6-(4-((4-(2-(2,6-dioxopiperidin-3-yl)-1,3-dioxoisoindolin-5-yl)piperazin-1-yl)methyl)piperidin-1-yl)pyridazine-3-carboxamide]
< 0.01 µM |  | N#Cc1ccc(O[C@H]2CC[C@H](NC(=O)c3cnc(N4CC[C@H](CN5CCN(c6ccc7c(c6)C(=O)N(C6CCC(=O)NC6=O)C7=O)CC5)C4)nc3)CC2)c2cccnc12 (some centres unmarked) [Compound 3-55]

Second part, the compound before the results:

Structure (SMILES) | DC50 [1] | DC50 [2]
CC(C)N(CC1CCN(c2ccc(C(=O)NC3CCC(Oc4ccc(C#N)c5ncccc45)CC3)nn2)CC1)C1CC(Oc2ccc3c(c2)C(=O)N(C2CCC(=O)NC2=O)C3=O)C1 (centres unmarked) [Compound 3-43] | < 0.01 µM | 
N#Cc1ccc(OC2CCC(NC(=O)c3cnc(N4CCC(CN5CCN(c6cc7c(cc6F)C(=O)N(C6CCC(=O)NC6=O)C7=O)CC5)CC4)cn3)CC2)c2cccnc12 (centres unmarked) [Compound 3-52] | < 0.01 µM | 
N#Cc1ccc(OC2CCC(NC(=O)c3ccc(N4CCC(CN5CCN(c6cc7c(cc6F)C(=O)N(C6CCC(=O)NC6=O)C7=O)CC5)CC4)c(F)c3)CC2)c2cccnc12 (centres unmarked) [Compound 3-50] | < 0.01 µM | 
N#Cc1ccc(OC2CCC(NC(=O)c3cnc(N4CCC(CN5CCN(c6cc7c(cc6F)C(=O)N(C6CCC(=O)NC6=O)C7=O)CC5)CC4)nc3)CC2)c2cccnc12 (centres unmarked) [Compound 3-51] | < 0.01 µM | 
CC(C)N(CC1CCN(c2ccc(C(=O)NC3CCC(Oc4ccc(C#N)c5ncccc45)CC3)cn2)CC1)C1CC(Oc2ccc3c(c2)C(=O)N(C2CCC(=O)NC2=O)C3=O)C1 (centres unmarked) [Compound 3-11] | < 0.01 µM | 
N#Cc1ccc(OC2CCC(NC(=O)c3cnc(N4CCC(CN5CCN(c6ccc7c(c6)CN([C@H]6CCC(=O)NC6=O)C7=O)CC5)CC4)nc3)CC2)c2cccnc12 (some centres unmarked) [Compound 3-30] | < 0.01 µM | < 0.01 µM
N#Cc1ccc(OC2CCC(NC(=O)c3ccc(N4CCC(CN5CCN(c6cc7c(cc6F)C(=O)N(C6CCC(=O)NC6=O)C7=O)CC5)CC4)nc3)CC2)c2cccnc12 (centres unmarked) [Compound 3-35] | < 0.01 µM | 
CN(CC1CCN(c2ccc(C(=O)NC3CCC(Oc4ccc(C#N)c5ncccc45)CC3)cn2)CC1)C1CC(Oc2ccc3c(c2)C(=O)N(C2CCC(=O)NC2=O)C3=O)C1 (centres unmarked) [Compound 3-9] | < 0.01 µM | 
N#Cc1ccc(O[C@H]2CC[C@H](NC(=O)c3cnc(N4CCC(CN5CCN(c6cc7c(cc6F)C(=O)N(C6CCC(=O)NC6=O)C7=O)CC5)CC4)c(F)c3)CC2)c2cccnc12 (some centres unmarked) [Compound 3-53] | < 0.01 µM | 
